Measured values reported in patent publication US20170050957A1, “4-AMINO-6-(HETEROCYCLIC)PICOLINATES AND 6-AMINO-2-(HETEROCYCLIC)PYRIMIDINE-4-CARBOXYLATES AND THEIR USE AS HERBICIDES” (Dow AgroSciences LLC, priority 2013, published 2017).
Read-outs that look alike come from different tables or passages of the source.

Legend:
[1] = system: Key Grass and Sedge Weeds as well as Grass Crops; assay: Post-emergent Test II herbicidal activity (Table 16); assay type: in vivo; details: post-emergence, 336 h, 14 days after application; for pest or weed control at 35 g/ha: 35 g ai/ha; for pest or weed control at 70 g/ha: 70 g ai/ha; for pest or weed control at 140 g/ha: 140 g ai/ha
In short: (§1)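 Herbicidal effect scored as percent visual injury, 14 d after post-emergent application. Spray solutions contained acetone, DMSO, isopropyl alcohol, crop oil concentrate and surfactant, applied at 187 L/ha to young plants (1-2 true leaves).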

[2] = system: Key Broadleaf Weed and Crop Species; assay: Post-emergent Test II herbicidal activity (Table 15); assay type: in vivo; details: post-emergence, 336 h, 14 d; for pest or weed control at 35 g/ha: 35 g ai/ha; for pest or weed control at 70 g/ha: 70 g ai/ha; for pest or weed control at 140 g/ha: 140 g ai/ha
In short: as §1

[3] = Cyperus esculentus, yellow nutsedge (Cyperus esculentus), read-out: Visual Growth Reduction (%) 14 Days After Application CYPES
[4] = Echinochloa crus-galli, barnyardgrass (Echinochloa crus-galli), read-out: Visual Growth Reduction (%) 14 Days After Application ECHCG
[5] = Oryza sativa, rice (Oryza sativa), read-out: Visual Growth Reduction (%) 14 Days After Application ORYSA
[6] = Setaria faberi, giant foxtail (Setaria faberi), read-out: Visual Growth Reduction (%) 14 Days After Application SETFA
[7] = Triticum aestivum, wheat, spring (Triticum aestivum), read-out: Visual Growth Reduction (%) 14 Days After Application TRZAS
[8] = Zea mays, maize, corn (Zea mays), read-out: Visual Growth Reduction (%) 14 Days After Application ZEAMX
[9] = Abutilon theophrasti, velvetleaf (Abutilon theophrasti), read-out: Visual Growth Reduction (%) 14 Days After Application, ABUTH
[10] = Amaranthus retroflexus, redroot pigweed (Amaranthus retroflexus), read-out: Visual Growth Reduction (%) 14 Days After Application, AMARE
[11] = Brassica napus, oilseed rape, canola (Brassica napus), read-out: Visual Growth Reduction (%) 14 Days After Application, BRSNN
[12] = Chenopodium album, lambsquarters (Chenopodium album), read-out: Visual Growth Reduction (%) 14 Days After Application, CHEAL
[13] = Euphorbia heterophylla, wild poinsettia (Euphorbia heterophylla), read-out: Visual Growth Reduction (%) 14 Days After Application, EPHHL
[14] = Helianthus annuus, sunflower (Helianthus annuus), read-out: Visual Growth Reduction (%) 14 Days After Application, HELAN

COC(=O)c1nc(-c2ccc3ccsc3c2)c(C)c(N)c1Cl [Compound 3.18]
60 to 74%: pest or weed control at 35 g/ha [2, 9] | pest or weed control at 35 g/ha [2, 10] | pest or weed control at 70 g/ha [2, 12] | pest or weed control at 140 g/ha [2, 12]
143 to 146 °C: melting point
0 to 29%: pest or weed control at 35 g/ha [1, 3] | pest or weed control at 70 g/ha [1, 3] | pest or weed control at 140 g/ha [1, 3] | pest or weed control at 35 g/ha [1, 4] | pest or weed control at 70 g/ha [1, 4] | pest or weed control at 140 g/ha [1, 4] | pest or weed control at 35 g/ha [1, 5] | pest or weed control at 70 g/ha [1, 5] | pest or weed control at 140 g/ha [1, 5] | pest or weed control at 35 g/ha [1, 6] | pest or weed control at 70 g/ha [1, 6] | pest or weed control at 140 g/ha [1, 6] | pest or weed control at 35 g/ha [1, 7] | pest or weed control at 70 g/ha [1, 7] | pest or weed control at 140 g/ha [1, 7] | pest or weed control at 35 g/ha [1, 8] | pest or weed control at 70 g/ha [1, 8] | pest or weed control at 140 g/ha [1, 8] | pest or weed control at 35 g/ha [2, 11] | pest or weed control at 70 g/ha [2, 11] | pest or weed control at 140 g/ha [2, 11] | pest or weed control at 70 g/ha [2, 13]
95 to 100%: pest or weed control at 140 g/ha [2, 10] | pest or weed control at 35 g/ha [2, 14] | pest or weed control at 70 g/ha [2, 14] | pest or weed control at 140 g/ha [2, 14]
45 to 59%: pest or weed control at 35 g/ha [2, 13]
75 to 84%: pest or weed control at 70 g/ha [2, 9] | pest or weed control at 140 g/ha [2, 9] | pest or weed control at 70 g/ha [2, 10]
30 to 44%: pest or weed control at 35 g/ha [2, 12] | pest or weed control at 140 g/ha [2, 13]
